test: Concentration required to inhibit human recombinant Poly (ADP-ribose) polymerase 1 was determined using cell protection assay

EC50 [nM]	SMILES
80	O=C(CCn1c2c(c(=O)[nH]c1=O)CSCC2)NCC(=O)c1ccc2ccccc2c1 [3-(2,4-Dioxo-3,4,7,8-tetrahydro-2H,5H-thiopyrano[4,3-d]pyrimidin-1-yl)-N-(2-naphthalen-2-yl-2-oxo-ethyl)-propionamide]
100	O=C(CCn1c2c(c(=O)[nH]c1=O)CSCC2)NCC(=O)N1CCN(c2ccccn2)CC1 [3-(2,4-Dioxo-3,4,7,8-tetrahydro-2H,5H-thiopyrano[4,3-d]pyrimidin-1-yl)-N-[2-oxo-2-(4-pyridin-2-yl-piperazin-1-yl)-ethyl]-propionamide]
100	O=C(CCn1c2c(c(=O)[nH]c1=O)CSCC2)NCC(=O)N1CCN(c2cc(C(F)(F)F)ccn2)CC1 [3-(2,4-Dioxo-3,4,7,8-tetrahydro-2H,5H-thiopyrano[4,3-d]pyrimidin-1-yl)-N-{2-oxo-2-[4-(4-trifluoromethyl-pyridin-2-yl)-piperazin-1-yl]-ethyl}-propionamide]
70	Nc1cccc(-c2ccc(C(=O)CNC(=O)CCn3c4c(c(=O)[nH]c3=O)CSCC4)cc2)c1 [N-[2-(3'-Amino-biphenyl-4-yl)-2-oxo-ethyl]-3-(2,4-dioxo-3,4,7,8-tetrahydro-2H,5H-thiopyrano[4,3-d]pyrimidin-1-yl)-propionamide]
500	O=C(CCn1c2c(c(=O)[nH]c1=O)CSCC2)NCC(=O)c1ccc(Cl)cc1 [N-[2-(4-Chloro-phenyl)-2-oxo-ethyl]-3-(2,4-dioxo-3,4,7,8-tetrahydro-2H,5H-thiopyrano[4,3-d]pyrimidin-1-yl)-propionamide]
700	Nc1cccnc1N1CCN(C(=O)CNC(=O)CCn2c3c(c(=O)[nH]c2=O)CSCC3)CC1 [N-{2-[4-(3-Amino-pyridin-2-yl)-piperazin-1-yl]-2-oxo-ethyl}-3-(2,4-dioxo-3,4,7,8-tetrahydro-2H,5H-thiopyrano[4,3-d]pyrimidin-1-yl)-propionamide]

test: Concentration required to inhibit human recombinant PARP-1 was determined using cell protection assay

EC50 [nM]	SMILES
100	O=C(CCn1c2c(c(=O)[nH]c1=O)CSCC2)NCC(=O)N1CCN(c2ncccc2C(F)(F)F)CC1 [3-(2,4-Dioxo-3,4,7,8-tetrahydro-2H,5H-thiopyrano[4,3-d]pyrimidin-1-yl)-N-{2-oxo-2-[4-(3-trifluoromethyl-pyridin-2-yl)-piperazin-1-yl]-ethyl}-propionamide]
80	COc1ccc(C(=O)CNC(=O)CCn2c3c(c(=O)[nH]c2=O)CSCC3)cc1 [3-(2,4-dioxo-2,3,4,5,7,8-hexahydro-1H-thiopyrano[4,3-d]pyrimidin-1-yl)-N-(2-(4-methoxyphenyl)-2-oxoethyl)propanamide]
500	O=C(CCn1c2c(c(=O)[nH]c1=O)CSCC2)NCC(=O)c1ccc(-c2ccccc2)cc1 [N-(2-Biphenyl-4-yl-2-oxo-ethyl)-3-(2,4-dioxo-3,4,7,8-tetrahydro-2H,5H-thiopyrano[4,3-d]pyrimidin-1-yl)-propionamide]
3500	O=C(CCn1c2c(c(=O)[nH]c1=O)CSCC2)NCC(=O)c1cccc(Br)c1 [N-[2-(3-Bromo-phenyl)-2-oxo-ethyl]-3-(2,4-dioxo-3,4,7,8-tetrahydro-2H,5H-thiopyrano[4,3-d]pyrimidin-1-yl)-propionamide]
200	O=C(CCn1c2c(c(=O)[nH]c1=O)CSCC2)NCC(=O)c1ccc(OC(F)F)cc1 [N-[2-(4-Difluoromethoxy-phenyl)-2-oxo-ethyl]-3-(2,4-dioxo-3,4,7,8-tetrahydro-2H,5H-thiopyrano[4,3-d]pyrimidin-1-yl)-propionamide]

test: Concentration required to inhibit human recombinant Poly (ADP-ribose) polymerase 1 was determined using cell protection assay; remark: another data set of the same source

EC50 [nM]	SMILES
100	O=C(CCn1c2c(c(=O)[nH]c1=O)CSCC2)NCC(=O)N1CCN(c2ccccc2)CC1 [3-(2,4-Dioxo-3,4,7,8-tetrahydro-2H,5H-thiopyrano[4,3-d]pyrimidin-1-yl)-N-[2-oxo-2-(4-phenyl-piperazin-1-yl)-ethyl]-propionamide]
